Laboratory results as given in patent US20020136691A1, “Pharmacological evaluation test (PET) in animals for continuous assessment of physiological functions” (priority 2000, published 2002).

Tests used:
Sprague Dawley rats [1] = type: in vivo
Description: Additional CNS monitoring was performed following pulmonary function assessment in that arm of the study. Rats were returned to their home cages and at 65 minutes post-dosing, the rats were placed in Plexiglas observation cylinders. Compound treated rats were systematically compared to vehicle treated rats for behavioral, neurologic and autonomic changes according to a modification of the method described by Irwin. […] The following functions were assessed: increased/decreased motor activity, ataxia, paralysis, tremor, convulsions, abnormal respiration, enhanced salivation, skin color, abnormal feces, death, righting reflex, visual orientation, grip reflex, muscle tone, rectal body temperature, and tail pinch. Body temperatures were also recorded both prior to dosing (baseline) and during modified Irwin testing post-dosing using a Yellow Springs Instruments Telethermometer and rectal probe or equivalent. Following modified Irwin testing, rats were administered anesthesia to effect and blood was collected.
For body temperatures, CBC values, clinical chemistry values, plasma levels and organ weight ratios, means were calculated (±standard deviation or standard error of the mean) and reported where applicable. Statistical evaluations for compound related effects were performed using the Student's t test (paired) and reported as significant if p<0.05.

Sprague Dawley rats [2] = assay: Cardiovascular monitoring (blood pressure, heart rate) by DSI telemetry; type: in vivo
Description: For the cardiovascular/renal function arm, a Data Sciences International (DSI, St Paul, Minn.) TA11PA-C40 implant was placed in the abdominal aorta of each rat.
Cardiovascular function and motility were assessed in conscious freely moving rats using DSI telemetry recording equipment. On the day of recording, the rats were placed into metabolism cages for simultaneous urine collection. Parameters monitored included blood pressure (BP), heart rate (HR) and activity. Measurements were taken at scheduled intervals (i.e., 10 sec. of data collection once every 2 min. for each rat) over 24 hours. An appropriate baseline period of at least 30 minutes was collected prior to animal dosing. For dosing, rats were briefly removed from their cage, weighed, dosed and returned.
Blood pressure, heart rate and activity were measured for 10 seconds once every 2 minutes for 24 hours. Blood pressure and heart rate were routinely evaluated at baseline, 30 min, 1 h, 2 h, 4 h, 6 h, 8 h, 12 h, 16 h and 20 h post-administration. The last 20 minutes before the start of treatment on Day 1, time-point values were averaged and taken as the baseline value for each rat. The other time-point values were obtained by averaging data 10 minutes prior and 10 minutes post each time-point. […] An analysis of variance was performed with the factors: treatment, animal (according to treatment), time, and treatment time interaction; time incorporated all measurements on the four days. The adjusted mean values post-treatment were compared with baseline. If there was a significant treatment time interaction, tests were performed for comparing the three treatment groups for each time-point. If such a test was significant, the adjusted mean values of the treated group were compared with the concurrent vehicle group for this time-point.

Sprague Dawley rats [3] = assay: Pulmonary function, BUXCO unrestrained whole body plethysmograph; type: in vivo
Description: For rats in the pulmonary/CNS arm, pulmonary function (respiratory frequency and tidal volume) was assessed incorporating the BUXCO Unrestrained Whole Body Plethysmograph technique. Rats were placed in a BUXCO chamber, and a 10-minute baseline-recording period was collected. Following the baseline-recording period, the rats were removed from the chambers, orally dosed and returned for a 60-minute period of data collection. At the conclusion of the experiment, the rats were removed from the chambers, and tested for modified Irwin profiling.
The respiratory signal was measured continuously for 10 minutes prior to dosing and […] post-dosing. Respiratory frequency and tidal volume were then extracted from this respiratory signal, and evaluated on a breath-by-breath basis over the course of a one-minute period. These calculated breath-by-breath values for respiratory frequency and tidal volume were averaged over 5-minute segments for the extent of the monitoring period. The time course for these values was then plotted as the mean ±standard deviation for each group studied. An analysis of variance similar to that described above for cardiovascular parameters was also performed.

Sprague Dawley rats [4] = assay: Renal function monitoring (urine collection in metabolism cages); type: in vivo; conditions: 10 and 30 mg/kg p.o., acute; males and females (FIG. 4)
Description: Renal function monitoring was conducted simultaneously with cardiovascular testing. Urine was collected for 0-8 and 8-24 hour time-points. Prior to telemetry data collection, DSI receivers equipped with special mounting strips were hung upside down on metabolism racks (Lab Products, Maywood, N.J.). Metabolism cages were then suspended from the DSI receivers and assembled to provide for food, water, and urine collection. […] Rats were weighed and placed into the recording metabolism cages for a baseline collection period (i.e., 30 minutes). After baseline, each rat was removed, dosed and returned. Pre-weighed collection tubes were placed under each metabolism cage. At 8 hours, the collection tubes were removed, weighed, and replaced with another set of pre-weighed tubes for the 8-24 hour time-point. At 24 hours, collection tubes were again removed and weighed. Following the 24 hour urine collection, rats were anesthetized and blood was collected.
Renal function was evaluated in the cardiovascular/renal function arm. Urine volume was calculated gravimetrically at each time-point. Urine flow was then calculated by (urine volume/time times or ×100/body weight (g)). Flow values were then plotted as the mean ±standard deviation for each group. […] Statistical significance (p<0.05) was assessed using the paired Student's t test.

Wistar rats = conditions: 1, 3 or 10 mg/kg p.o., acute
[5] = Body weight, PET rat study; type: in vivo, Sprague Dawley rats; conditions: 300 and 1000 mg/kg p.o., subacute; males and females (FIG. 3)
Description: FIG. 3. […] Individual rat body weights were recorded daily in grams using an Ohaus Navigator™ digital balance.
Male and female Sprague Dawley rats from Charles River were used in these experiments. For the “standard” protocol, a total of 48 rats were used. Twenty-four rats (12 female rats and 12 male rats) were placed in the acute pulmonary function/CNS evaluation arm of the study, and 24 rats (12 female rats and 12 male rats) were placed in the subacute cardiovascular/renal arm of the study. Rats in both arms were further divided into 4 subgroups (3 male rats and 3 female rats) which were dosed with vehicle or compound at dose 1, dose 2; or dose 3. Rats in the pulmonary function/CNS evaluation arm of the study were administered a single dose of vehicle or compound. […]
Rats in the cardiovascular/renal function arm of the study (with telemetry implants) were administered daily doses of vehicle or compound for 5 days. Blood pressure, heart rate and motility were continuously monitored 24 hours/day over four days via telemetry recording. Urine was collected 0-8 and 8-24 hours post-dosing on Days 1 and 4 and assessed for changes in volume output and electrolyte excretion. […]
Cardiovascular function and motility were assessed in conscious freely moving rats using DSI telemetry recording equipment. […] Parameters monitored included blood pressure (BP), heart rate (HR) and activity. […]

C[C@H](N)Cc1ccccc1 [d-amphetamine]
Overt behavioral effects observed (Sprague Dawley rats [1]; 2 and 8 mg/kg p.o., male and female, acute and subacute): increased motility, sniffing, rearing, head weaving and vocalization
BP (Sprague Dawley rats [2]; males, 8 mg/kg p.o.): slightly increased
HR (Sprague Dawley rats [2]; males, 8 mg/kg p.o.): slightly increased
Respiratory frequency (Sprague Dawley rats [3]; 2 and 8 mg/kg p.o., male and female, acute and subacute dosing (FIG. 1)): increased in a dose dependent manner

CN1C(=O)CN=C(c2ccccc2)c2cc(Cl)ccc21 [diazepam]
Modified Irwin profiling (Sprague Dawley rats [1]; rat, in vivo): dose dependent effects on motility, coordination, muscle tone and body temperature
Effects in the CV system (Sprague Dawley rats [2]; 20 and 80 mg/kg p.o.): No relevant effects
Effects in the pulmonary system (Sprague Dawley rats [3]; 20 and 80 mg/kg p.o.): No relevant effects

NS(=O)(=O)c1cc(C(=O)O)c(NCc2ccco2)cc1Cl [furosemide]
Urine output (Sprague Dawley rats [4]): dose dependently increased

COC(=O)C1=C(C)NC(C)=C(C(=O)OC)C1c1ccccc1[N+](=O)[O-] [nifedipine]
Body temperature (Wistar rats): No effects
Heart rate (Wistar rats): dose dependent increase
Motility (Wistar rats): No effects
Respiration (Wistar rats): No effects

C[C@]12C=CC(=O)C=C1CC[C@@H]1[C@@H]2[C@@H](O)C[C@@]2(C)[C@H]1CC[C@]2(O)C(=O)CO [prednisolone]
Body weight [5]: decrease in body weight
Effects in the CV system (Sprague Dawley rats [2]; 300 and 1000 mg/kg p.o.): No relevant effects
